Data reported in patent US20200352913A1, “NEW METHOD FOR TREATING DENGUE VIRUS INFECTION” (INSERM (INSTITUT NATIONAL DE LA SANTÉ ET DE LA RECHERCHE …, priority 2017, published 2020).
“Also recorded” adds a separate entry of the source.

Experiments:
[1] = tested on: DENV2_16681; conditions: Diamond et al., 2002; targets de novo purine biosynthesis pathway; cited from earlier work
[2] = data not shown
Description: (§1) The OST complex is known to be required for flavivirus infection through mechanisms that are poorly understood (Marceau et al., 2016; Savidis et al., 2016; Zhang et al., 2016). In mammalians, there are two OST complexes, each composed of a catalytic subunit isoform (STT3A or STT3B) associated with a set of shared subunits (RPN1, RPN2, DDOST, DAD1 and OST4) (Cherepanova et al., 2016). Their main function is to transfer a preassembled oligosaccharide to selected asparagine residues within the consensus sequence asparagine-X-serine/threonine (Cherepanova et al., 2016). […] To test whether the OST complex contributes to NS1 or NS4B N-glycosylation, we transfected HEK-293T cells with a siRNA pool targeting RPN1, DDOST, STT3A or STT3B. […] We then examined the effect of NGI-1, a recently discovered N-linked glycosylation inhibitor that directly and reversibly interacts with the OST catalytic subunits (Lopez-Sambrooks et al., 2016). […] To pinpoint the effect of hypoglycosylation on NS1 stability, we transfected HEK-293T cells with plasmids encoding FLAG-NS1 WT or mutants lacking the first (N130Q), the second (N207Q), or both N-linked glycosylation sites (N130Q/N207Q) (data not shown).

[3] = tested on: DENV1, DENV2_16681, DENV2_JAM, DENV3_THAI; assay: Infection of HeLa cells by DENV serotypes, flow cytometry (FIG. 2D); format: cell-based, Dengue virus; conditions: 24 h pre-incubation, continuous drug, 24h post infection
Method: (§2) FIG. 2. […] (A) HeLa cells were pre-incubated for 24h with increased concentration of NGI-1, or for 3h with MPA prior infection with DENV2_16681 (MOI 5). MPA, Mycophenolic acid. (B) Replication kinetics of DENV2 in HeLa replicon cells challenged with NGI-1 (2 μM) or MPA (10 μM) along the experiment duration. (C) Supernatants from HEK-293T cells transfected with FLAG-NS plasmids, were subjected to ELISA to quantify secreted NS1. (D) HeLa cells were incubated for 24 hours with NGI-1 and challenged in continuous presence of the drug with DENV1 (MOI 1), DENV2_16681 (MOI 5), DENV2_JAM (MOI 5), DENV3_THAI (MOI 5), WNV (MOI 1), ZIKV (MOI 1), CHIKV (MOI 5) or HSV (MOI 0.3). (E) Similarly treated primary skin fibroblast and monocyte derived dendritic cells (MDDC) were challenged with DENV2_16681 (MOI 5) and ZIKV_HD78788 (MOI 2). (D and E) The levels of infected cells were assessed 24h post infection by flow cytometry using respective anti-viral antibodies. (A-E) Data shown are means±SD of two independent experiments. Significance was calculated using a one-way ANOVA statistical test with a Dunnett's multiple (A, B and C) or Tukey comparison test (D and E). (n.s., not significant; **p<0.001; […]).

[4] = tested on: WNV; assay: Infection of HeLa cells by WNV, flow cytometry (FIG. 2D); format: cell-based, West Nile virus; conditions: MOI 1, 24h post infection
Method: as §2

[5] = tested on: HSV; assay: Infection of HeLa cells by HSV, flow cytometry (FIG. 2D); format: cell-based; conditions: MOI 0.3, 24h post infection
Method: as §2

[6] = tested on: DENV2 replicon (vRNA amplification); assay: Replication kinetics of DENV2 in HeLa replicon cells (FIG. 2B); format: cell-based, Dengue virus; conditions: NGI-1 2 μM
Method: as §2
(§3) The OST complex is known to be required for flavivirus infection through mechanisms that are poorly understood (Marceau et al., 2016; Savidis et al., 2016; Zhang et al., 2016). […]

[7] = tested on: secreted NS1; assay: ELISA of secreted NS1 in supernatants (FIG. 2C); format: cell-based, DENV
Method: as §2, §3

[8] = tested on: DENV2_16681; assay: DENV infection of monocyte-derived dendritic cells (FIG. 2E); format: cell-based, Dengue virus; conditions: DENV2_16681 MOI 5, 24h post infection
Method: as §2

[9] = tested on: DENV NS1 glycosylation; assay: DENV NS1 glycosylation under NGI-1 (immunoblot, data not shown); format: cell-based; conditions: dose dependent
Description: as §1

[10] = tested on: ZIKV NS1 glycosylation; assay: ZIKV NS1 glycosylation under NGI-1 (immunoblot, data not shown); format: cell-based; conditions: dose dependent
Description: as §1

[11] = tested on: DENV2_16681; assay: DENV infection of human primary skin fibroblasts (FIG. 2E); format: cell-based, Dengue virus; conditions: DENV2_16681 MOI 5, 24h post infection
Method: as §2

[12] = tested on: Cell proliferation; assay: Cell proliferation over time (FIG. 3); format: cell-based; conditions: NGI-1 2 μM, measured over time, RLU
Method: FIG. 3. Cell proliferation is not affected by NGI-1. Cell proliferation is measured over time after incubation with NGI-1 (2 μM), MPA (10 μM) or respective mock control. Data shown are means±S.D. of one representative experiment of three replicates. RLU, relative light units.

[13] = tested on: DENV2_16681; assay: DENV infection of HeLa cells pre-incubated with drug (FIG. 2A); format: cell-based, Dengue virus
Method: as §2, §3

SMILES	DENV replication inhibition (literature) [1]	cytotoxicity [2]	infection by the four DENV serotypes [3]	infection by WNV [4]	infection by HSV [5]	vRNA amplification [6]	NS1 secretion [7]	DENV infection of monocyte-derived dendritic cells [8]	DENV NS1 glycosylation [9]	ZIKV NS1 glycosylation [10]	DENV infection of human primary skin fibroblasts [11]	cell proliferation / antiproliferative effects [12]	antiviral activity compared with MPA ([13]; FIGS. 2A and B, NGI-1 2 μM, MPA 10 μM in replicon cells)	DENV infection ([13]; HeLa cells, 24h pre-incubation with increased concentration of NGI-1, DENV2_16681 MOI 5, dose dependent)
COc1c(C)c2c(c(O)c1C/C=C(\C)CCC(=O)O)C(=O)OC2 [MPA, mycophenolic acid]	a well-known DENV replication inhibitor													
Cc1cnc(NC(=O)c2cc(S(=O)(=O)N(C)C)ccc2N2CCCC2)s1 [NGI-1]		without any significant cytotoxicity	blocked	blocked	not	blocked	impaired	significantly reduced	strongly impaired	strongly impaired	significantly reduced	not affected; also recorded: without any significant cytotoxicity (data not shown) or antiproliferative effects	comparable to mycophenolic acid	significantly inhibited
